Columns and labels:
[1] = system: Rattus norvegicus; assay: Anti-inflammatory activity in Rattus norvegicus Wistar (rat) assessed as inhibition of carrageenan-induced paw edema at dose molecularly equivalent to 20 mg/kg of ibuprofen administered as po after 3 hr relative to ibuprofen; type: functional
[2] = system: Mus musculus; assay: Analgesic activity in Mus musculus Swiss albino (mouse) assessed as protection against acetic acid-induced writhing effect at 20 mg/kg, po after 3 hr relative to control; type: functional
[3] = system: Rattus norvegicus; assay: Gastrointestinal toxicity in Rattus norvegicus Wistar (rat) assessed as ulcer index at dose molecularly equivalent to 60 mg/kg of ibuprofen administered as po; type: organism-based; design: dose 60 mg/kg, route oral; conditions: in vivo
[4] = system: Rattus norvegicus; assay: Anti-inflammatory activity in Rattus norvegicus Wistar (rat) assessed as inhibition of carrageenan-induced paw edema at 20 mg/kg, po after 3 hr relative to control; type: functional
[5] = system: Rattus norvegicus; assay: Gastrointestinal toxicity in Rattus norvegicus Wistar (rat) assessed as ulcer index at 60 mg/kg, po; type: organism-based; design: dose 60 mg/kg, route oral; conditions: in vivo

COc1cc(/C=C/C(=O)c2ccc3c(c2)CN(c2ccc(C)cc2)CO3)cc(OC)c1OC
inhibition in vivo [1]: 56.5%

Cc1ccc(N2COc3ccc(C(=O)/C=C/c4ccc(Cl)cc4)cc3C2)cc1
inhibition in vivo [1]: 63.4%

Cc1ccc(N2COc3ccc(C(=O)/C=C/c4ccc(Cl)cc4Cl)cc3C2)cc1
Activity [2]: 55.47%
inhibition in vivo [1]: 71.9%
UI [3]: 0.17

COc1ccc(N2COc3ccc(C(=O)/C=C/c4ccccc4Cl)cc3C2)cc1
inhibition in vivo [1]: 63.4%

COc1ccc(/C=C/C(=O)c2ccc3c(c2)CN(c2ccc(OC)cc2)CO3)cc1
inhibition in vivo [1]: 61.2%

COc1ccc(N2COc3ccc(C(=O)/C=C/c4ccccc4O)cc3C2)cc1
inhibition in vivo [1]: 55.7%

COc1ccc(N2COc3ccc(C(=O)/C=C/c4cc(OC)c(OC)c(OC)c4)cc3C2)cc1
inhibition in vivo [1]: 62.2%

COc1ccc(N2COc3ccc(C(=O)/C=C/c4ccc(Cl)cc4)cc3C2)cc1
Activity [2]: 52.22%
inhibition in vivo [1]: 67.4%
UI [3]: 0.25

COc1ccc(N2COc3ccc(C(=O)/C=C/c4ccc(Cl)cc4Cl)cc3C2)cc1
Activity [2]: 57.38%
inhibition in vivo [1]: 74.9%
UI [3]: 0.08

Cc1ccc(N2COc3ccc(C(=O)/C=C/c4ccccc4Cl)cc3C2)cc1
inhibition in vivo [1]: 60.4%

COc1ccc(/C=C/C(=O)c2ccc3c(c2)CN(c2ccc(C)cc2)CO3)cc1
Activity [2]: 54.27%
inhibition in vivo [1]: 70.4%
UI [3]: 0.17

Cc1ccc(N2COc3ccc(C(=O)/C=C/c4ccccc4O)cc3C2)cc1
inhibition in vivo [1]: 51%

CC(C)Cc1ccc(C(C)C(=O)O)cc1 (stereo not drawn) [IBUPROFEN]
Activity [2]: 63.06%
inhibition in vivo at 20 mg/kg [4]: 82.3%
UI [5]: 1
